According to patent US8507506B2, “Theophylline derivative inhibits osteoporosis” (Kaohsiung Medical University, priority 2011, dated 2013):
Marks after values point to notes of the source that are not given here.

Columns and labels:
Type in all cases: cell-based
[1] = system: NFATc1 mRNA in RAW264.7 cells; experiment: RT-PCR, RANKL-induced mRNA expression of NFATc1; settings: for RANKL-induced mRNA expression level of NFATc1: RAW264.7 cells, 24 hours, CTL 100%, mean ± SEM
Excerpt: (§1) The culture medium was discarded. […] [table] f) Running • A.

[2] = system: p65 in the cell nucleus of RAW264.7 cells; experiment: Western blot, amount of p65 in nuclei induced by RANKL; settings: KMUP-1 in advance 24 hours, RANKL 30 minutes, FIG. 8(B)
Experimental: IκBα which originally binds with NF-κB to inhibit its activity in cytoplasm is stimulated by RANKL to be phosphorylized and be hydrolyzed after separating from NF-κB. Then, the free NF-κB transfers into a cell nucleus to play a role as a transcription factor. According to the experimental result, compared with the control group, in the group induced by RANKL for 30 minutes, the IκBα in the cytoplasm is obviously phosphorylized and hydrolyzed. […] According to the result, KMUP-1 can inhibit NF-κB activation induced by RANKL. Nuclear proteins were extracted according to the instructions of NE-PER kit. 2.5×10^6 cells were plated per well in 24-well plates. […] Subsequently, the cells were added by 5.5 μ[…] and shaken for 5 seconds and then put on ice for 1 minute. After that, the cells were shaken again for 5 seconds and centrifuged (10,000 rpm, 4° C., 5 minutes). Cytoplasm and Nuclei could be separated by this process, and the supernatant was cytoplasmic proteins, and the pallet was nuclei. The supernatant was stored in an eppendorf in -80° C. b) Extraction of Nuclear Proteins The nuclear pallet was added by 500 μl PBS and centrifuged (10,000 rpm, 4° C., 5 minutes), and the supernatant was discarded. The pallet could be washed by this process and prevented contamination. […]

[3] = system: IL-1β secretion by RAW264.7 cells; experiment: ELISA, RANKL-induced secretion of IL-1β; settings: RAW264.7, ELISA, FIG. 6
Experimental: (§2) Under RANKL stimulation, mononuclear RAW264.7 cells can secrete pro-inflammatory cytokines such as TNF-α, IL-1, IL-6, etc. ELISA is used to measure that KMUP-1 influences RANKL to induce the secretion of pro-inflammatory cytokines. […] 10^5 cells were plated per well in 24-well plates. […] After 24 hours reaction, the reaction fluid was centrifuged (13,000 rpm, 4° C., 20 minutes), and then the supernatant was tasted by ELISA kit (R&D system and eBioscience™) to detect the amount of TNF-α, IL-1β, IL-6, and IL-10. The experimental process is followed with the instructions of the kit.

[4] = system: IL-6 secretion by RAW264.7 cells; experiment: ELISA, RANKL-induced secretion of IL-6; settings: RAW264.7, ELISA, FIG. 7(A)
Experimental: as §2

[5] = system: MMP-2 protein in RAW264.7 cells; experiment: Western blot, amount of MMP-2 protein induced by RANKL; settings: RANKL 24 hours, FIG. 18
Experimental: KMUP-1 influences there major up-stream signal transduction pathways which are related to RANK/RANKL. Western blot is used to estimate the amount of matrix metalloproteinase (MMP)-2 and MMP-9 which are related to the dissolution of osteoclast-like cells, and the enzyme activity of MMP-2 and MMP-9 are estimated via Gelatin Zymography. […] The proteins were collected by scraping and were centrifuged (13,000 rpm, 4° C., 30 minutes). The supernatant was stored in an eppendorf in −80° C. • c) Concentrations of the proteins were examined by Bio-Red DC Protein Assay. After knowing the concentrations, the proteins were diluted to specific concentrations by adding ddH2O. One forth volume of the diluted proteins of sample buffer was added into the diluted proteins and was put in boiled water for 5 min and then was chilled on ice for 5 minutes. After short time centrifugation, the diluted proteins could be injected into wells of a gel. The gel was run at 100 V for 10 minutes until the proteins were driven to the intersection between a loading gel and a running gel. Then, the voltage was swopped to 200 V for 40 minutes. • d) A PVDF membrane was immersed in Methanol for 2 minutes. After two washes in ddH2O, the membrane was immersed in transfer buffer for 15 minutes. A SDS-PAGE was put on the membrane, and wet paper was flanked them. […]

[6] = system: Fra-2 mRNA in RAW264.7 cells; experiment: RT-PCR, RANKL-induced mRNA expression of Fra-2; settings: for RANKL-induced mRNA expression level of Fra-2: RAW264.7 cells, 24 hours, CTL 100%, mean ± SEM
Excerpt: as §1

[7] = system: RAW264.7 cells stimulated by RANKL; experiment: TRAP stain, differentiation into multinuclear osteoclast-like cells; settings: 10 ng/ml RANKL for 5 days, FIG. 3
Experimental: 10^3 cells were plated per well in 96-well plates. […] PBS, 50 μl/well fluid was left. […] 50 μl/well fluid was left, and then Substrate 200 μl/well was added to react for 15 minutes in room temperature. After the cells were stained in red, the cells were washed by ddH2O. At last, the cells were observed and taken pictures by an optical microscopy (40× and 200×), and Autopano Pro V1.4.2, Kolor, Paris, was used to proceed the pictures taken in 40×. Then, the number of the osteoclasts with at least three nuclei was counted and compared with the control group. […] Fixative solution: Citrate solution 25 ml, Acetone 65 ml, 37% Formaldehyde 8 ml. Stored in dark in 4° C. • 2. Citrate solution: 18 mM citric acid, 9 mM sodium citrate, and 12 mM NaCl were solved in 100 ml water, pH 3.6, and then 0.001% Triton X-100 was added at last. • 3. Substrate: 2 mg AS-MX (Naphthol As-Mx-phosphate disodium) and 6 mg Fast Red Violet LB were solved in 1 M Sodium tartrate acetone (0.1 M, pH 5) and 0.1 M, 19 ml sodium acetate.

[8] = 10 ng/ml RANKL, summary of Table 1

In the case of `Cn1c(=O)c2c(ncn2CCN2CCN(c3ccccc3Cl)CC2)n(C)c1=O` [KMUP-1, 7-[2-[4-(2-Chlorophenyl)piperazin-1-yl]ethyl] theophylline], the “effect on mRNA expression of NFATc1 induced by RANKL (in words)” value [1, 8] is reported as “inhibits the mRNA expression”, the “RANKL-induced mRNA expression level of NFATc1” value ([1]; RANKL 10 ng/ml + KMUP-1 1 μM) is reported as 256.9 ± 7.5% and the “RANKL-induced mRNA expression level of NFATc1” value ([1]; RANKL 10 ng/ml + KMUP-1 2.5 μM) is reported as 184.7 ± 4.2% ^b. For the same compound, the “RANKL-induced mRNA expression level of NFATc1” value ([1]; RANKL 10 ng/ml + KMUP-1 5 μM) was 161.8 ± 2.9% ^b, the “RANKL-induced mRNA expression level of NFATc1” value ([1]; RANKL 10 ng/ml + KMUP-1 7.5 μM) was 132.9 ± 2.4% ^b and the “RANKL-induced mRNA expression level of NFATc1” value ([1]; RANKL 10 ng/ml + KMUP-1 10 μM) was 121.5 ± 4.5% ^b. The “amount of p65 in the cell nucleus induced by RANKL” value [2] was “has the inhibiting effect on that p65 enters into a cell nucleus”, the “RANKL-induced secretion of IL-1” value [3] was “presents a dose dependent inhibition phenomenon” and the “RANKL-induced secretion of IL-6” value [4] was “presents a dose dependent inhibition phenomenon”. The “amount of MMP-2 protein induced by RANKL” value [5] was “can efficiently inhibit the amount of MMP-2 and MMP-9 proteins”, the “effect on mRNA expression of Fra-2 induced by RANKL (in words)” value [6, 8] was “not obviously inhibits” and the “RANKL-induced mRNA expression level of Fra-2” value ([6]; RANKL 10 ng/ml + KMUP-1 1 μM) was 428.3 ± 38.5%. For the same compound, the “RANKL-induced mRNA expression level of Fra-2” value ([6]; RANKL 10 ng/ml + KMUP-1 2.5 μM) was 490.5 ± 42.3%, the “RANKL-induced mRNA expression level of Fra-2” value ([6]; RANKL 10 ng/ml + KMUP-1 5 μM) was 488.2 ± 57.6% ^ and the “RANKL-induced mRNA expression level of Fra-2” value ([6]; RANKL 10 ng/ml + KMUP-1 7.5 μM) was 474.5 ± 52.1% ^. The “RANKL-induced mRNA expression level of Fra-2” value ([6]; RANKL 10 ng/ml + KMUP-1 10 μM) was 496.6 ± 44.1% ^ and the “differentiation into multinuclear osteoclast-like cells (TRAP staining)” value [7] was “obviously express inhibition phenomenon related to dose”.
